A short description of test [1]: Antagonist activity at CCR5 in HOS cells assessed as inhibition of HIV-1 Ba-L infection.
Test [2] in a line: Antagonist activity at CCR5 in human peripheral blood lymphocytes cells assessed as inhibition of HIV-1 Ba-L infection.

The structures appear in SMILES notation. pIC50: −log10 of the molar value.

Consider `C=CCN(C(=O)Cc1ccc(C(N)=O)cc1)C1CCN(CCC2(c3cccc(F)c3)CCN(C(=O)c3cc(S(=O)(=O)NC(C)(C)C)c(F)cc3Cl)CC2)CC1` [4-(2-(allyl(1-(2-(1-(5-(N-tert-butylsulfamoyl)-2-chloro-4-fluorobenzoyl)-4-(3-fluorophenyl)piperidin-4-yl)ethyl)piperidin-4-yl)amino)-2-oxoethyl)benzamide], for which the pIC50 in test [1] was 6.68.
On the same count and under the same terms, the result for `C=CCN(C(=O)Nc1ccc(OC(C)=O)cc1)C1CCN(CCC2(c3cccc(F)c3)CCN(C(=O)c3cc(S(=O)(=O)NC(C)(C)C)c(F)cc3Cl)CC2)CC1` [4-(3-allyl-3-(1-(2-(1-(5-(N-tert-butylsulfamoyl)-2-chloro-4-fluorobenzoyl)-4-(3-fluorophenyl)piperidin-4-yl)ethyl)piperidin-4-yl)ureido)phenyl acetate] reads 7.22.
The same measure, in the same setting: the result for `C=CCN(C(=O)NCc1ccc(C(N)=O)cc1)C1CCN(CCC2(c3cccc(F)c3)CCN(C(=O)c3cc(S(=O)(=O)NC(C)(C)C)c(F)cc3Cl)CC2)CC1` [4-((3-allyl-3-(1-(2-(1-(5-(N-tert-butylsulfamoyl)-2-chloro-4-fluorobenzoyl)-4-(3-fluorophenyl)piperidin-4-yl)ethyl)piperidin-4-yl)ureido)methyl)benzamide] reads 5.51.
For the compound `C=CCN(C(=O)OCc1ccc(S(C)(=O)=O)cc1)C1CCN(CCC2(c3cccc(F)c3)CCN(C(=O)c3cc(S(=O)(=O)NC(C)(C)C)c(F)cc3Cl)CC2)CC1` [4-(methylsulfonyl)benzyl allyl(1-(2-(1-(5-(N-tert-butylsulfamoyl)-2-chloro-4-fluorobenzoyl)-4-(3-fluorophenyl)piperidin-4-yl)ethyl)piperidin-4-yl)carbamate], the pIC50 was 8.35 in test [2] and 7.77 in test [1].
For `C=CCN(C(=O)OCc1ccc(OC(F)(F)F)cc1)C1CCN(CCC2(c3cccc(F)c3)CCN(C(=O)c3cc(S(=O)(=O)NC(C)(C)C)c(F)cc3Cl)CC2)CC1` [4-(trifluoromethoxy)benzyl allyl(1-(2-(1-(5-(N-tert-butylsulfamoyl)-2-chloro-4-fluorobenzoyl)-4-(3-fluorophenyl)piperidin-4-yl)ethyl)piperidin-4-yl)carbamate], the pIC50 in test [1] was 7.57.
As for `C=CCN(C(=O)OCc1ccc(C(F)(F)F)cc1)C1CCN(CCC2(c3cccc(F)c3)CCN(C(=O)c3cc(S(=O)(=O)NC(C)(C)C)c(F)cc3Cl)CC2)CC1` [4-(trifluoromethyl)benzyl allyl(1-(2-(1-(5-(N-tert-butylsulfamoyl)-2-chloro-4-fluorobenzoyl)-4-(3-fluorophenyl)piperidin-4-yl)ethyl)piperidin-4-yl)carbamate], the figures for the pIC50 in test [2] and in test [1] were 7.40 and 7.82, respectively.
For `C=CCN(C(=O)OCc1ccc(C#N)cc1)C1CCN(CCC2(c3cccc(F)c3)CCN(C(=O)c3cc(S(=O)(=O)NC(C)(C)C)c(F)cc3Cl)CC2)CC1` [4-cyanobenzyl allyl(1-(2-(1-(5-(N-tert-butylsulfamoyl)-2-chloro-4-fluorobenzoyl)-4-(3-fluorophenyl)piperidin-4-yl)ethyl)piperidin-4-yl)carbamate], the pIC50 in test [1] was 8.35.
As to `C=CCN(C(=O)OCc1ccc(F)cc1)C1CCN(CCC2(c3cccc(F)c3)CCN(C(=O)c3cc(S(=O)(=O)NC(C)(C)C)c(F)cc3Cl)CC2)CC1` [4-fluorobenzyl allyl(1-(2-(1-(5-(N-tert-butylsulfamoyl)-2-chloro-4-fluorobenzoyl)-4-(3-fluorophenyl)piperidin-4-yl)ethyl)piperidin-4-yl)carbamate], the pIC50 in test [1] was 7.66.
In the case of `C=CCN(C(=O)OCc1ccc([N+](=O)[O-])cc1)C1CCN(CCC2(c3cccc(F)c3)CCN(C(=O)c3cc(S(=O)(=O)NC(C)(C)C)c(F)cc3Cl)CC2)CC1` [4-nitrobenzyl allyl(1-(2-(1-(5-(N-tert-butylsulfamoyl)-2-chloro-4-fluorobenzoyl)-4-(3-fluorophenyl)piperidin-4-yl)ethyl)piperidin-4-yl)carbamate], the pIC50 in test [2] was 7.62; in test [1], 8.07.
Turning to `C=CCN(C(=O)Nc1ccc(S(C)(=O)=O)cc1)C1CCN(CCC2(c3cccc(F)c3)CCN(C(=O)c3cc(S(=O)(=O)NC(C)(C)C)c(F)cc3Cl)CC2)CC1` [5-(4-(2-(4-(1-allyl-3-(4-(methylsulfonyl)phenyl)ureido)piperidin-1-yl)ethyl)-4-(3-fluorophenyl)piperidine-1-carbonyl)-N-tert-butyl-4-chloro-2-fluorobenzenesulfonamide], the pIC50 was 7.46 in test [2] and 7.94 in test [1].
For `C=CCN(C(=O)NCc1ccc(C(F)(F)F)cc1)C1CCN(CCC2(c3cccc(F)c3)CCN(C(=O)c3cc(S(=O)(=O)NC(C)(C)C)c(F)cc3Cl)CC2)CC1` [5-(4-(2-(4-(1-allyl-3-(4-(trifluoromethyl)benzyl)ureido)piperidin-1-yl)ethyl)-4-(3-fluorophenyl)piperidine-1-carbonyl)-N-tert-butyl-4-chloro-2-fluorobenzenesulfonamide], the pIC50 in test [2] is 7.38; in test [1], 8.16.
For the compound `C=CCN(C(=O)Nc1ccc(C(F)(F)F)cc1)C1CCN(CCC2(c3cccc(F)c3)CCN(C(=O)c3cc(S(=O)(=O)NC(C)(C)C)c(F)cc3Cl)CC2)CC1` [5-(4-(2-(4-(1-allyl-3-(4-(trifluoromethyl)phenyl)ureido)piperidin-1-yl)ethyl)-4-(3-fluorophenyl)piperidine-1-carbonyl)-N-tert-butyl-4-chloro-2-fluorobenzenesulfonamide], the negative-log IC50 (pIC50) in test [1] was 7.19.
Turning to `C=CCN(C(=O)NCc1ccc(C#N)cc1)C1CCN(CCC2(c3cccc(F)c3)CCN(C(=O)c3cc(S(=O)(=O)NC(C)(C)C)c(F)cc3Cl)CC2)CC1` [5-(4-(2-(4-(1-allyl-3-(4-cyanobenzyl)ureido)piperidin-1-yl)ethyl)-4-(3-fluorophenyl)piperidine-1-carbonyl)-N-tert-butyl-4-chloro-2-fluorobenzenesulfonamide], the pIC50 in test [2] is 8.43; in test [1] it was 8.41.
Consider `C=CCN(C(=O)Nc1ccc(C#N)cc1)C1CCN(CCC2(c3cccc(F)c3)CCN(C(=O)c3cc(S(=O)(=O)NC(C)(C)C)c(F)cc3Cl)CC2)CC1` [5-(4-(2-(4-(1-allyl-3-(4-cyanophenyl)ureido)piperidin-1-yl)ethyl)-4-(3-fluorophenyl)piperidine-1-carbonyl)-N-tert-butyl-4-chloro-2-fluorobenzenesulfonamide], for which the figures for the pIC50 in test [2] and in test [1] were 7.60 and 7.69, respectively.
Turning to `C=CCN(C(=O)NCc1ccc(F)cc1)C1CCN(CCC2(c3cccc(F)c3)CCN(C(=O)c3cc(S(=O)(=O)NC(C)(C)C)c(F)cc3Cl)CC2)CC1` [5-(4-(2-(4-(1-allyl-3-(4-fluorobenzyl)ureido)piperidin-1-yl)ethyl)-4-(3-fluorophenyl)piperidine-1-carbonyl)-N-tert-butyl-4-chloro-2-fluorobenzenesulfonamide], the pIC50 in test [1] was 7.34.
On to `C=CCN(C(=O)Nc1ccc(F)cc1)C1CCN(CCC2(c3cccc(F)c3)CCN(C(=O)c3cc(S(=O)(=O)NC(C)(C)C)c(F)cc3Cl)CC2)CC1` [5-(4-(2-(4-(1-allyl-3-(4-fluorophenyl)ureido)piperidin-1-yl)ethyl)-4-(3-fluorophenyl)piperidine-1-carbonyl)-N-tert-butyl-4-chloro-2-fluorobenzenesulfonamide], for which, in test [1], the pIC50 was 7.47.
On to `C=CCN(C(=O)CCc1ccc(OC(F)(F)F)cc1)C1CCN(CCC2(c3cccc(F)c3)CCN(C(=O)c3cc(S(=O)(=O)NC)c(F)cc3Cl)CC2)CC1` [N-allyl-N-(1-(2-(1-(2-chloro-4-fluoro-5-(N-methylsulfamoyl)benzoyl)-4-(3-fluorophenyl)piperidin-4-yl)ethyl)piperidin-4-yl)-3-(4-(trifluoromethoxy)phenyl)propanamide], for which, in test [1], the pIC50 was 6.38.
As for `C=CCN(C(=O)CCc1ccc(C#N)cc1)C1CCN(CCC2(c3cccc(F)c3)CCN(C(=O)c3cc(S(=O)(=O)NC)c(F)cc3Cl)CC2)CC1` [N-allyl-N-(1-(2-(1-(2-chloro-4-fluoro-5-(N-methylsulfamoyl)benzoyl)-4-(3-fluorophenyl)piperidin-4-yl)ethyl)piperidin-4-yl)-3-(4-cyanophenyl)propanamide], the pIC50 in test [1] was 6.82.
The same measure, in the same setting: the result for `C=CCN(C(=O)Cc1ccc(S(C)(=O)=O)cc1)C1CCN(CCC2(c3cccc(F)c3)CCN(C(=O)c3cc(S(=O)(=O)NC(C)(C)C)c(F)cc3Cl)CC2)CC1` [N-allyl-N-(1-(2-(1-(5-(N-tert-butylsulfamoyl)-2-chloro-4-fluorobenzoyl)-4-(3-fluorophenyl)piperidin-4-yl)ethyl)piperidin-4-yl)-2-(4-(methylsulfonyl)phenyl)acetamide] reads 7.19.
Regarding `C=CCN(C(=O)Cc1ccc(OC(F)(F)F)cc1)C1CCN(CCC2(c3cccc(F)c3)CCN(C(=O)c3cc(S(=O)(=O)NC(C)(C)C)c(F)cc3Cl)CC2)CC1` [N-allyl-N-(1-(2-(1-(5-(N-tert-butylsulfamoyl)-2-chloro-4-fluorobenzoyl)-4-(3-fluorophenyl)piperidin-4-yl)ethyl)piperidin-4-yl)-2-(4-(trifluoromethoxy)phenyl)acetamide], the pIC50 in test [2] was 7.06; in test [1] it was 7.74.
Regarding `C=CCN(C(=O)Cc1ccc(F)cc1)C1CCN(CCC2(c3cccc(F)c3)CCN(C(=O)c3cc(S(=O)(=O)NC(C)(C)C)c(F)cc3Cl)CC2)CC1` [N-allyl-N-(1-(2-(1-(5-(N-tert-butylsulfamoyl)-2-chloro-4-fluorobenzoyl)-4-(3-fluorophenyl)piperidin-4-yl)ethyl)piperidin-4-yl)-2-(4-fluorophenyl)acetamide], in test [1], the pIC50 is 7.28.
Still for that read-out and setting: the result for `C=CCN(C(=O)OCc1ccc(C(=O)OC)cc1)C1CCN(CCC2(c3cccc(F)c3)CCN(C(=O)c3cc(S(=O)(=O)NC(C)(C)C)c(F)cc3Cl)CC2)CC1` [methyl 4-((allyl(1-(2-(1-(5-(N-tert-butylsulfamoyl)-2-chloro-4-fluorobenzoyl)-4-(3-fluorophenyl)piperidin-4-yl)ethyl)piperidin-4-yl)carbamoyloxy)methyl)benzoate] reads 7.39.

Source of the values: BindingDB's records for doi:10.1016/j.bmcl.2010.10.033 (Glaxosmithkline, 2010).
